Inhibition data for five compounds are collected here from publication PMC9897788, “Design, synthesis and cytotoxic evaluation of novel bis-thiazole derivatives as preferential Pim1 kinase inhibitors with in vivo and in silico study” (Journal of Enzyme Inhibition and Medicinal Chemistry, 2023).

Each structure is given as a SMILES string.

What all share (assay): NCI 60 cell one-dose screening (SRB)
Common to all, as to type: cell-based

In experiment [1] the test system is 786-0. The note with it: Homo sapiens; 786-0, Renal Cancer; single dose 10 µM, 48 h; read-out: Percentage of cellular growth inhibition. The protocol:
(§1) The 60 cancerous cell panel screening was performed following the Developmental Therapeutics Program (DTP) of the National Cancer Institute (NIH-NCI), USA. A single dose of 10 µM was used to perform the screening at 48 h incubation and the results were achieved as cancerous cell growth percentage relative to the no-drug control that was converted to an inhibition percentage by subtracting from 100.The cancerous cell lines were grown in RPMI 1640 medium containing 5% foetal bovine serum and 2 mM L-glutamine at 37 °C, 5% CO2, 95% air and 100% relative humidity for 24 h prior to addition of the tested compounds. After 24 h, two plates of each cell line were fixed in situ with TCA to represent a measurement of the cell population for each cell line at the time of drug addition (Tz). Compounds were dissolved in DMSO at 400-fold the desired final maximum test concentration and stored frozen prior to use. At the time of drug addition, an aliquot of frozen concentrate was thawed and diluted to twice the desired final maximum test concentration with complete medium containing 50 µg/mL gentamicin. Aliquots of 100 µL of the compounds dilution was added to the appropriate micro titre wells already containing 100 µL of medium, resulting in the required final drug concentrations of 10 µM. Following compounds addition, the plates were incubated for an additional 48 h at 37 °C, 5% CO2, 95% air, and 100% relative humidity. For adherent cells, the assay was terminated by the addition of cold TCA. Cells were fixed in situ by the gentle addition of 50 µL of cold 50% (w/v) TCA (final concentration, 10% TCA) and incubated for 60 min at 4 °C. The supernatant was discarded, and the plates were washed five times with tap water and air dried. Sulphorhodamine B (SRB) solution (100 µL) at 0.4% (w/v) in 1% acetic acid is added to each well, and plates are incubated for 10 min at room temperature. After staining, unbound dye was removed by washing five times with 1% acetic acid and the plates were air dried. Bound stain was subsequently solubilised with 10 mM trizma base, and the absorbance was read on an automated plate reader at a wavelength of 515 nm. For suspension cells, the methodology was the same except that the assay was terminated by fixing settled cells at the bottom of the wells by gently adding 50 µL of 80% TCA (final concentration, 16% TCA). Using the seven absorbance measurements [time zero, (Tz), control growth, I, and test growth in the presence of drug at the five concentration levels (Ti)], the percentage growth was calculated as: [(Ti−Tz)/(C−Tz)]×100 for concentrations for which Ti>/=Tz [(Ti−Tz)/Tz]×100 for concentrations for which Ti<Tz.

Experiment [2] relates to A498. The note with it: Homo sapiens; A498, Renal Cancer; single dose 10 µM, 48 h; read-out: Percentage of cellular growth inhibition. The protocol: as §1
Experiment [3] concerns DU-145. As to conditions: Homo sapiens; DU-145, Prostate Cancer; single dose 10 µM, 48 h; read-out: Percentage of cellular growth inhibition. As for the experimental part: as §1
Experiment [4] has as its system EKVX. The note with it: Homo sapiens, Non-Small Cell Lung Cancer, single dose 10 µM, 48 h, read-out: Percentage of cellular growth inhibition. As for the experimental part: as §1
Experiment [5] concerns HCC-2998. The note with it: Homo sapiens; HCC-2998, Colon Cancer; single dose 10 µM, 48 h; read-out: Percentage of cellular growth inhibition. The protocol:
as §1

The subject of experiment [6] is HCT-116. The note with it: Homo sapiens; HCT-116, Colon Cancer; single dose 10 µM, 48 h; read-out: Percentage of cellular growth inhibition. As for the experimental part:
as §1

In experiment [7] the test system is HT29. The note with it: Homo sapiens, HT-29; HT29, Colon Cancer; single dose 10 µM, 48 h; read-out: Percentage of cellular growth inhibition. The protocol: as §1
The subject of experiment [8] is IGROV1. As to conditions: Homo sapiens, IGROV-1; IGROV1, Ovarian Cancer; single dose 10 µM, 48 h; read-out: Percentage of cellular growth inhibition. As for the experimental part:
as §1

The test system of experiment [9] is KM12. The note with it: Homo sapiens; KM12, Colon Cancer; single dose 10 µM, 48 h; read-out: Percentage of cellular growth inhibition. The protocol: as §1
Experiment [10] has as its system MCF7. The note with it: Homo sapiens; MCF7, Breast Cancer; single dose 10 µM, 48 h; read-out: Percentage of cellular growth inhibition. The protocol: as §1
Experiment [11] relates to MDA-MB-231/ATCC. The note with it: Homo sapiens, Breast Cancer, single dose 10 µM, 48 h, read-out: Percentage of cellular growth inhibition. As for the experimental part: as §1
Experiment [12] concerns MDA-MB-435. As to conditions: Homo sapiens; MDA-MB-435, Melanoma; single dose 10 µM, 48 h; read-out: Percentage of cellular growth inhibition. As for the experimental part:
as §1

For experiment [13], the system named is NCI-H226. As to conditions: Homo sapiens; NCI-H226, Non-Small Cell Lung Cancer; single dose 10 µM, 48 h; read-out: Percentage of cellular growth inhibition. As for the experimental part:
as §1

For experiment [14], the system named is RPMI-8226. The note with it: Homo sapiens; RPMI-8226, Leukemia; single dose 10 µM, 48 h; read-out: Percentage of cellular growth inhibition. The protocol: as §1
The subject of experiment [15] is SNB-75. As to conditions: Homo sapiens; SNB-75, CNS Cancer; single dose 10 µM, 48 h; read-out: Percentage of cellular growth inhibition. The protocol: as §1
Experiment [16] concerns SW-620. As to conditions: Homo sapiens; SW-620, Colon Cancer; single dose 10 µM, 48 h; read-out: Percentage of cellular growth inhibition. The protocol: as §1
Experiment [17] concerns TK-10. The note with it: Homo sapiens; TK-10, Renal Cancer; single dose 10 µM, 48 h; read-out: Percentage of cellular growth inhibition. The protocol:
as §1

Experiment [18] concerns UACC-257. As to conditions: Homo sapiens; UACC-257, Melanoma; single dose 10 µM, 48 h; read-out: Percentage of cellular growth inhibition. As for the experimental part: as §1
Experiment [19] concerns UACC-62. The note with it: Homo sapiens; UACC-62, Melanoma; single dose 10 µM, 48 h; read-out: Percentage of cellular growth inhibition. The protocol: as §1
Experiment [20] has as its system UO-31. As to conditions: Homo sapiens; UO-31, Renal Cancer; single dose 10 µM, 48 h; read-out: Percentage of cellular growth inhibition. As for the experimental part:
as §1

On to `CC(=O)c1sc(Nc2cccc(Nc3nc(C)c(C(C)=O)s3)c2)nc1C` [3b, 1,1’-(2,2’-(1,3-Phenylenebis(azanediyl))bis(4-methylthiazole-5,2-diyl))diethanone], for which the inhibition at 10 µM stood at 44.3% in experiment [1]; 72.3% in experiment [2]; 54.6% in experiment [3]; 31.2% in [4]; 19.9% in experiment [5]; 55.8% in experiment [6]. For the same compound, the inhibition at 10 µM in experiment [7] was determined as 30%; in [8], 73.6%; in experiment [9], 39.8%; in [10], 38.3%; in [11] it was 19.3%; in experiment [12], 40.9%. Further, the inhibition at 10 µM amounted to 34.6% in [13]; 32.1% in [14]; 37.1% in [15]; 37.5% in experiment [16]; 46.4% in experiment [17]; 11.3% in experiment [18]. Moreover, the inhibition at 10 µM in experiment [19] was 51.2%; in experiment [20] it was 67.8%.

As to `S=C(Nc1ccccc1)Nc1cccc(NC(=S)Nc2ccccc2)c1` [compound 7, 1,1′-(1,3-phenylene)bis(3-phenylthiourea)], the inhibition at 10 µM is -13.4% in experiment [1]; -17.7% in experiment [2]; -10.2% in [3]; 2.5% in experiment [4]; -11.5% in experiment [5]; -11.8% in experiment [6]. For the same compound, the inhibition at 10 µM is -26.3% in experiment [7]; -3.3% in experiment [8]; 1% in experiment [9]; 8.5% in experiment [10]; -0.2% in [11]; -2.8% in experiment [12]. The inhibition at 10 µM in experiment [13] was -6.2%; in [14], -19.2%; in [15] it was 7.9%; in [16], -16.8%; in experiment [17], -17.5%; in [18], -1.7%. The inhibition at 10 µM in experiment [19] is 5.8%; in experiment [20], 14.6%.

As for `CCOC(=O)c1sc(Nc2cccc(Nc3nc(C)c(C(=O)OCC)s3)c2)nc1C` [3c, Diethyl 2,2’-(1,3-phenylenebis(azanediyl))bis(4-methylthiazole-5-carboxylate)], the inhibition at 10 µM in experiment [1] worked out at 5.5%; in experiment [2] it was 52.7%; in experiment [3], 16.2%; in [4] it was 38.6%; in experiment [5], 9.7%; in [6], 43.5%. For the same compound, the inhibition at 10 µM in experiment [7] is -4.7%; in experiment [8], 23.4%; in experiment [9] it was 12.2%; in [10] it was 26.7%; in experiment [11] it was 20.8%; in experiment [12] it was 17.9%. Moreover, the inhibition at 10 µM in experiment [13] is 15%; in experiment [14], 37.7%; in experiment [15], 2.6%; in experiment [16], 11.4%; in experiment [17], -0.8%; in experiment [18], 10.3%. The values for the inhibition at 10 µM in [19] and in experiment [20] were 33.1% and 32.9%, respectively.

With `c1ccc(-c2csc(Nc3cccc(Nc4nc(-c5ccccc5)cs4)c3)n2)cc1` [6a, N^1,N^3-bis(4-phenylthiazol-2-yl)benzene-1,3-diamine], the inhibition at 10 µM is 49.6% in experiment [1]; 14.5% in experiment [2]; 41.1% in experiment [3]; 62.3% in [4]; 64.5% in experiment [5]; 60% in [6]. The inhibition at 10 µM in experiment [7] was found to be 60.6%; in [8] it was 65.9%; in experiment [9] it was 98.9%; in [10], 84.4%; in experiment [11], 52%; in experiment [12], 55.3%. In addition, the inhibition at 10 µM was 33.8% in experiment [13]; 50.7% in experiment [14]; 51.4% in experiment [15]; 33.8% in experiment [16]; 31.4% in experiment [17]; 53.9% in experiment [18]. Moreover, the inhibition at 10 µM in experiment [19] came out at 49.7%; in experiment [20], 67.7%.

For the compound `c1ccc(/N=c2\scc(-c3ccccc3)n2-c2cccc(-n3c(-c4ccccc4)cs/c3=N\c3ccccc3)c2)cc1` [8a, N,N’-(3,3’-(1,3-phenylene)bis(4-phenylthiazole-3(3H)-yl-2(3H)-ylidene))dianiline], the inhibition at 10 µM in [1] is -11.1%; in experiment [2], -18.1%; in experiment [3], -3.2%; in [4], 5.3%; in experiment [5], -22.2%; in experiment [6], -4.1%. For the same compound, the inhibition at 10 µM is -3.1% in experiment [7]; -6.1% in experiment [8]; 1.1% in [9]; 18% in experiment [10]; -4.1% in experiment [11]; 1% in experiment [12]. Also, the inhibition at 10 µM in experiment [13] was 17%; in experiment [14], -0.5%; in experiment [15], 11.7%; in experiment [16] it was -0.4%; in experiment [17], -38.8%; in experiment [18], -11.8%. Besides, the values for the inhibition at 10 µM in experiment [19] and in experiment [20] were 20.3% and 25.4%, respectively.

Usually inhibition stands for the drop in the measured response relative to a control, in per cent.
